A short description of data set [1]: Toxicity in BALB/c mouse xenografted with human HCCLM3 cells assessed as pathological change in lung at 50 mg/kg,ip administration measured after 22 days by hematoxylin and eosin staining based microscopic analysis. Format: organism-based. Conditions: in vivo, 528 h, time 22 day.
The nature of data set [2]: Toxicity in BALB/c mouse xenografted with human HCCLM3 cells assessed as pathological change in liver at 50 mg/kg,ip administration measured after 22 days by hematoxylin and eosin staining based microscopic analysis. It counts as organism-based. Conditions: in vivo, 528 h, time 22 day.
Data set [3] is described as follows: Toxicity in BALB/c mouse xenografted with human HCCLM3 cells assessed as body weight loss at 50 mg/kg,ip administration measured after 22 days. Format: organism-based. Conditions: in vivo, 528 h, time 22 day.
The nature of data set [4]: Toxicity in BALB/c mouse xenografted with human HCCLM3 cells assessed as pathological change in kidney at 50 mg/kg,ip administration measured after 22 days by hematoxylin and eosin staining based microscopic analysis. To be noted: in vivo, 528 h, time 22 day. It counts as organism-based.
Data set [5] concerns HCCLM3. Put plainly: Antitumor activity against human HCCLM3 cells xenografted in BALB/c mouse assessed as inhibition of tumor growth at 50 mg/kg,ip administration measured after 22 days. Format: functional, organism-based. To be noted: time 22.0 day.
Data set [6] in a line: Toxicity in BALB/c mouse xenografted with human HCCLM3 cells assessed as change in mental state at 50 mg/kg,ip administration measured after 22 days. It counts as organism-based. To be noted: in vivo, 528 h, time 22 day.
A short description of data set [7]: Toxicity in BALB/c mouse xenografted with human HCCLM3 cells assessed as pathological change in spleen at 50 mg/kg,ip administration measured after 22 days by hematoxylin and eosin staining based microscopic analysis. Format: organism-based. To be noted: in vivo, 528 h, time 22 day.
A short description of data set [8]: Toxicity in BALB/c mouse xenografted with human HCCLM3 cells assessed as pathological change in heart at 50 mg/kg,ip administration measured after 22 days by hematoxylin and eosin staining based microscopic analysis. Format: organism-based. To be noted: in vivo, 528 h, time 22 day.
Data set [9] is described as follows: Half life in Wistar rat at 100 mg/kg,po administration measured upto 96 hrs by HPLC-UV analysis. Conditions: in vivo.
Data set [10] concerns HCCLM3. Kind of data set: Antiproliferative activity against human HCCLM3 cells cultured as 3D cells assessed as inhibition of colony formation at 25 uM incubated for 21 days by 3D soft-agar based microscopic analysis. It counts as functional, cell-based. To be noted: time 21.0 day.

The source made the active and inactive calls. The rule behind the calls is not given here.

For the compound `CNC(=O)c1cc(Oc2ccc(NC(=O)Nc3ccc(Cl)c(C(F)(F)F)c3)cc2)ccn1` [SORAFENIB], the Activity entry is reported as “Non-toxic” in data set [1]; “Non-toxic” in [2]; “Toxic” in data set [3]; “Non-toxic” in data set [4]; “Toxic” in data set [6]; “Non-toxic” in [7]. In addition, in data set [8], the Activity entry is reported as “Non-toxic”. For the same compound, the outcome in data set [5] and in [10] was Active. The half-life at 96 h in data set [9] is 21.9 h.

The values above are taken from ChEMBL document CHEMBL6087465, “Design, Synthesis, and Antitumor Activity Evaluation of 2-Phenylthiazole-5-Carboxylic Acid Derivatives Targeting Transactivation Response RNA-Binding Protein 2” (J Med Chem, 2025).
